Target: T1, human CCR5 (Homo sapiens, UniProt P51681)
T1 construct: expressed in transfected cells; host or cells: CHO-K1 cells, stably transfected with pCKR5 (pcDNA3.1 backbone), Geneticin-selected
Assay: Inhibition of [125I]-RANTES binding to CCR5/CHO cells (CCR5 antagonist activity)
Conditions: test compound 1 μM, 100 pM [125I]-RANTES as ligand, room temperature; for inhibition at 1 µM: 40 min, read-out: Binding Inhibitory Ratio (%); for Binding Inhibitory Ratio (%): 40 minutes
Procedure: (1) Cloning of Human CCR5 Chemokine Receptor Cloning of CCR5 gene was conducted from human spleen cDNA by PCR method. Using cDNA (0.5 ng) from spleen (Toyobo, QUICK-Clone cDNA) as a genetic template, primer sets prepared by referring to CCR5 gene nucleotide sequence described by Samson et al. (Biochemistry 35 (11), 3362-3367 (1996), i.e., (2) Preparation of Expression Plasmid of Human CCR5 […] The DNA fragments and an expression plasmid for animal cells pcDN A3.1 (Funakoshi), which was previously digested by XbaI and BamHI, were mixed and ligated by DNA Ligation Kit Ver. 2 (Takara Shuzo). Transformation of E. coli JM109 competent cells (Takara Shuzo) gave plasmid pCKR5. (3) Introduction of the Human CCR5 Expression Plasmid into CHO-K1 Cells and Expression Thereof […] The cells were washed with PBS (Lifetech Oriental), centrifuged (1000 rpm, 5 minutes), and resuspended in PBS. The DNA was introduced into the cells using Gene Pulser (BioRad) according to the following conditions. […] The cells were diluted to a concentration of 10^4 cells/ml, and inoculated in 96 well plate (Becton Dickinson), to obtain Geneticin-resistant cells. The Geneticin-resistant cells ware grown in 96 well plate (Becton Dickinson), and CCR5 expressing cells were selected from the resistant cells. Namely, in an assay buffer, (Ham F12 medium containing 0.5% BSA, and 20 mM HEPES (Wako Pure Chemical Ind., pH 7.2)), containing 200 pM [^125I]-RANTES (Amersham) as a ligand, the cells were subjected to binding reaction at room temperature for 40 minutes. The well plate containing the cells was washed with ice-cooled PBS, added with 1M NaOH in an amount of 50 μl/well and stirred. The cells to which the ligand bound specifically, i.e., CCR5/CHO cells, were selected by measurement of radioactivity by γ-counter. (4) Evaluation of Compounds Based on CCR5 Antagonist Activity The CCR5/CHO cells were inoculated in 96 well microplate at a concentration of 5×10^4 cells/well, and grown for 24 hours. After removal of the medium by aspiration, to each well was added an assay buffer containing a test compound (1 μM), and (^125I)/RANTES (Amersham) used as a ligand at a concentration of 100 pM. The mixture was subjected to the reaction at room temperature for 40 minutes. After removal of the assay buffer by aspiration, each well was washed with cooled PBS twice. Then, 200 μl MicroScint 20 (Packerd) was added to each well, and the radioactivity of each well was measured by TopCount (Packard). According to the method above, inhibitory ratios to CCR5 binding of the test compounds were determined.

T1 sequence (P51681 whole entry): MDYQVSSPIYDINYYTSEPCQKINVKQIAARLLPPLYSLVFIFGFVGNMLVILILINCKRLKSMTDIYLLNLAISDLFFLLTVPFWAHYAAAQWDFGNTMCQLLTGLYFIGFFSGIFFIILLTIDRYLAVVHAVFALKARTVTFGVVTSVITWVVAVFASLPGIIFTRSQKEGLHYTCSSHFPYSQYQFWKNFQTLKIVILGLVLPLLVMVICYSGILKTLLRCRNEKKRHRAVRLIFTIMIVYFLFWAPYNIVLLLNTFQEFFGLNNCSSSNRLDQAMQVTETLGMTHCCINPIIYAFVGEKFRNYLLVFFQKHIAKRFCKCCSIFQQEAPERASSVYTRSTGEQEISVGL

Compound `CCCCOCCOc1ccc(-c2ccc3c(c2)C=C(C(=O)Nc2ccc([S+]([O-])Cc4nncn4CCC)cc2)CCCN3CC(C)C)cc1` (single isomer, unassigned; (+)) [Compound 48, (+)-8-[4-(2-butoxyethoxy)phenyl]-1-isobutyl-N-[4-[[(4-propyl-4H-1,2,4-triazol-3-yl)methyl]sulfinyl]phenyl]-1,2,3,4-tetrahydro-1-benzazocine-5-carboxamide] has an inhibition at 1 µM of 97%.

In the case of `CCCCOCCOc1ccc(-c2ccc3c(c2)C=C(C(=O)Nc2ccc([S+]([O-])Cc4nncn4CCC)cc2)CCCN3CCC)cc1` (single isomer, unassigned; (+)) [Compound 53, (+)-8-[4-(2-butoxyethoxy)phenyl]-1-propyl-N-[4-[[(4-propyl-4H-1,2,4-triazol-3-yl)methyl]sulfinyl]phenyl]-1,2,3,4-tetrahydro-1-benzazocin-5-carboxamide], the “Binding Inhibitory Ratio (%)” value was 100%.

`CCCCOCCOc1ccc(-c2ccc3c(c2)C=C(C(=O)Nc2ccc([S+]([O-])Cc4cncn4CCC)cc2)CCCN3CCC)cc1` (single isomer, unassigned; (-)) [Compound 9, (−)-8-[4-(2-butoxyethoxy)phenyl]-1-propyl-N-[4-[[[1-propylimidazol-5-yl]methyl]sulfinyl]phenyl]-1,2,3,4-tetrahydro-1-benzoazocine-5-carboxamide] gave an inhibition at 1 µM of 100%.

In the case of `CCCCOCCOc1ccc(-c2ccc3c(c2)C=C(C(=O)Nc2ccc([S+]([O-])Cc4cncn4CCC)cc2)CCCN3CC(C)C)cc1.CS(=O)(=O)O` (single isomer, unassigned; (-)) [Compound 14, (−)-8-[4-(2-butoxyethoxy)phenyl]-1-isobutyl-N-[4-[[[1-propyl-1H-imidazol-5-yl]methyl]sulfinyl]phenyl]-1,2,3,4-tetrahydro-1-benzoazocine-5-carboxamide methanesulfonate], the “Binding Inhibitory Ratio (%)” value was 98%.

With `CCCCOCCOc1ccc(-c2ccc3c(c2)C=C(C(=O)Nc2ccc([S+]([O-])Cc4nccn4CCC)cc2)CCCN3CCC)cc1` (single isomer, unassigned; (-)) [Compound 22, (−)-8-[4-(2-butoxyethoxy)phenyl]-1-propyl-N-[4-[[[1-propylimidazol-2-yl]methyl]sulfinyl]phenyl]-1,2,3,4-tetrahydro-1-benzoazocine-5-carboxamide] the inhibition at 1 µM was 98%.

In the case of `C=C(C)CN1CCCC(C(=O)Nc2ccc([S+]([O-])Cc3cncn3CCC)cc2)=Cc2cc(-c3ccc(OCCOCCCC)cc3)ccc21` (single isomer, unassigned; (-)) [Compound 23, (−)-8-[4-(2-butoxyethoxy)phenyl]-1-(2-methyl-2-propen-1-yl)-N-[4-[[[1-propylimidazol-5-yl]methyl]sulfinyl]phenyl]-1,2,3,4-tetrahydro-1-benzoazocine-5-carboxylic], the “Binding Inhibitory Ratio (%)” value was 97%.

In the case of `CCCCOCCOc1ccc(-c2ccc3c(c2)C=C(C(=O)Nc2ccc([S+]([O-])Cc4cncn4CCC)cc2)CCCCN3CC(C)C)cc1` (single isomer, unassigned; (-)) [Compound 26, (−)-9-[4-(2-butoxyethoxy)phenyl]-1-isobutyl-N-[4-[[[1-propylimidazol-5-yl]methyl]sulfinyl]phenyl]-2,3,4,5-tetrahydro-1H-1-benzoazonin-6-carboxamide], the inhibition at 1 µM was 100%.

For `CCCCOCCOc1ccc(-c2ccc3c(c2)C=C(C(=O)Nc2ccc([S+]([O-])Cc4cncn4CCC)cc2)CCCN3Cc2cnn(C)c2)cc1` (single isomer, unassigned; (-)) [Compound 34, (−)-8-[4-(2-butoxyethoxy)phenyl]-1-((1-methylpyrazol-4-yl)methyl)-N-[4-[[[1-propylimidazol-5-yl]methyl]sulfinyl]phenyl]-1,2,3,4-tetrahydro-1-benzoazocine-5-carboxamide], the inhibition at 1 µM was 97%.

In the case of `CCCCOCCOc1ccc(-c2ccc3c(c2)C=C(C(=O)Nc2ccc([S+]([O-])Cc4nncn4CCC)cc2)CCCN3CC(C)C)cc1` (single isomer, unassigned; (-)) [Compound 49, (−)-8-[4-(2-butoxyethoxy)phenyl]-1-isobutyl-N-[4-[[(4-propyl-4H-1,2,4-triazol-3-yl)methyl]sulfinyl]phenyl]-1,2,3,4-tetrahydro-1-benzazocine-5-carboxamide], the “Binding Inhibitory Ratio (%)” value was 91%.

With `CCCCOCCOc1ccc(-c2ccc3c(c2)C=C(C(=O)Nc2ccc([S+]([O-])Cc4nncn4CCC)cc2)CCCN3CCC)cc1` (single isomer, unassigned; (-)) [Compound 52, (−)-8-[4-(2-butoxyethoxy)phenyl]-1-propyl-N-[4-[[[4-propyl-4H-1,2,4-triazol-3-yl]methyl]sulfinyl]phenyl]-1,2,3,4-tetrahydro-1-benzazocine-5-carboxamide] the “Binding Inhibitory Ratio (%)” value was 96%.

For `CCCCOCCOc1ccc(-c2ccc3c(c2)C=C(C(=O)Nc2ccc(CN(C)C4CCOCC4)cc2)CCCO3)cc1` [Compound 1, 8-[4-(2-butoxyethoxy)phenyl]-N-[4-[[N-methyl-N-(tetrahydropyran-4-yl)amino]methyl]phenyl]-3,4-dihydro-2H-1-benzoxocin-5-carboxamide], the inhibition at 1 µM was 94%.

`CCCCOCCOc1ccc(-c2ccc3c(c2)C=C(C(=O)Nc2ccc(CN(C)C4CCOCC4)cc2)CCCN3CCC)cc1` [Compound 2, 8-[4-(2-butoxyethoxy)phenyl]-1-propyl-N-[4-[[N-methyl-N-(tetrahydropyran-4-yl)amino]methyl]phenyl]-1,2,3,4-tetrahydro-1-benzazocine-5-carboxamide] gave an inhibition at 1 µM of 96%.

With `CCCCOCCOc1ccc(-c2ccc3c(c2)C=C(C(=O)Nc2ccc(SCc4cncn4CCC)cc2)CCCN3CCC)cc1` [Compound 3, 8-[4-(2-butoxyethoxy)phenyl]-1-propyl-N-[4-[[[1-propylimidazol-5-yl]methyl]sulfanyl]phenyl]-1,2,3,4-tetrahydro-1-benzazocine-5-carboxamide] the inhibition at 1 µM was 91%.

`CCCCOCCOc1ccc(-c2ccc3c(c2)C=C(C(=O)Nc2ccc([S+]([O-])Cc4cncn4CCC)cc2)CCCN3CCC)cc1` (stereo not shown) [Compound 4, 8-[4-(2-butoxyethoxy)phenyl]-1-propyl-N-[4-[[[1-propylimidazol-5-yl]methyl]sulfinyl]phenyl]-1,2,3,4-tetrahydro-1-benzazocine-5-carboxamide] was tested, and the “Binding Inhibitory Ratio (%)” value was 100%.

In the case of `CCCCOCCOc1ccc(-c2ccc3c(c2)C=C(C(=O)Nc2ccc(S(=O)(=O)Cc4cncn4CCC)cc2)CCCN3CCC)cc1` [Compound 5, 8-[4-(2-butoxyethoxy)phenyl]-1-propyl-N-[4-[[[1-propylimidazol-5-yl]methyl]sulfonyl]phenyl]-1,2,3,4-tetrahydro-1-benzazocine-5-carboxamide], the inhibition at 1 µM was 86%.

With `CCCCOCCOc1ccc(-c2ccc3c(c2)C=C(C(=O)Nc2ccc(SCc4cncn4CCC)cc2)CCCN3CC(C)C)cc1` [Compound 6] the “Binding Inhibitory Ratio (%)” value was 98%.

For `CCCCOCCOc1ccc(-c2ccc3c(c2)C=C(C(=O)Nc2ccc([S+]([O-])Cc4cncn4CCC)cc2)CCCN3CC(C)C)cc1` (stereo not shown) [Compound 7, 8-[4-(2-butoxyethoxy)phenyl]-1-isobutyl-N-[4-[[[1-propyl-1H-imidazol-5-yl]methyl]sulfinyl]phenyl]-1,2,3,4-tetrahydro-1-benzazocine-5-carboxamide], the inhibition at 1 µM was 100%.

In the case of `CCCCOCCOc1ccc(-c2ccc3c(c2)C=C(C(=O)Nc2ccc(SCc4cncn4CCC)cc2)CCCN3CC(C)C)cc1` [Compound 8, 8-[4-(2-butoxyethoxy)phenyl]-I-isobutyl-N-[4-[[[1-propyl-1H-imidazol-5-yl]methyl]sulfanyl]phenyl]-1,2,3,4-tetrahydro-1-benzazocine-5-carboxamide], the “Binding Inhibitory Ratio (%)” value was 99%.

With `CCCCOCCOc1ccc(-c2ccc3c(c2)C=C(C(=O)Nc2ccc([S+]([O-])Cc4cncn4CCC)cc2)CCCN3CC(C)CO)cc1` (stereo not shown) [Compound 32, 8-[4-(2-butoxyethoxy)phenyl]-1-(2-methyl-3-hydroxy)propyl-N-[4-[[[1-propylimidazol-5-yl]methyl]sulfinyl]phenyl]-1,2,3,4-tetrahydro-1-benzoazocine-5-carboxamide] the “Binding Inhibitory Ratio (%)” value was 100%.

— patent publication US10045968B2, “Bicyclic compound, production and use thereof” (TOBIRA THERAPEUTICS, INC., priority 2001, dated 2018)
